Measurements taken from the NIST ThermoML archive (doi:10.1016/j.fluid.2010.02.043).
Numbers after ± are expanded uncertainties.

Settings: Liquid, Ebulliometric method (Recirculating still)

Structure (SMILES) | vapor or sublimation pressure (332.19 K) | vapor or sublimation pressure (346.26 K) | vapor or sublimation pressure (354.42 K) | vapor or sublimation pressure (362.18 K) | vapor or sublimation pressure (366.46 K) | vapor or sublimation pressure (371.63 K) | vapor or sublimation pressure (375.04 K) | vapor or sublimation pressure (378.75 K) | vapor or sublimation pressure (382.02 K) | vapor or sublimation pressure (366.97 K) | vapor or sublimation pressure (378.82 K) | vapor or sublimation pressure (387.59 K) | vapor or sublimation pressure (397.84 K) | vapor or sublimation pressure (403.31 K) | vapor or sublimation pressure (408.91 K) | vapor or sublimation pressure (413.59 K) | vapor or sublimation pressure (418.73 K) | vapor or sublimation pressure (422.25 K) | vapor or sublimation pressure (426.39 K)
CSSC [2,3-dithiabutane] | 18.2 ± 0.4 kPa | 31.1 ± 0.4 kPa | 41.7 ± 0.4 kPa | 53.9 ± 0.4 kPa | 61.9 ± 0.4 kPa | 72.9 ± 0.4 kPa | 81.1 ± 0.4 kPa | 90.9 ± 0.4 kPa | 100.6 ± 0.5 kPa | – | – | – | – | – | – | – | – | – | –
CCSSCC [3,4-dithiahexane] | – | – | – | – | – | – | – | – | – | 15.8 ± 0.4 kPa | 24.1 ± 0.4 kPa | 32.3 ± 0.4 kPa | 44.4 ± 0.4 kPa | 52.8 ± 0.4 kPa | 62.2 ± 0.4 kPa | 71.1 ± 0.4 kPa | 82.1 ± 0.4 kPa | 90.5 ± 0.4 kPa | 100.7 ± 0.4 kPa
